Structures can show the parent of a compound that is named as a salt.
target: T1, recombinant guanylate cyclase reporter cell line (Rattus norvegicus, UniProt P19686+P20595); experiment: B-2. Action on recombinant guanylate cyclase reporter cell line; assay type: cell-based; conditions: MEC = minimal effective concentration; in some cases mean values from individual determinations
T1 construct: expressed in transfected cells
T1 sequence (P20595 1-619): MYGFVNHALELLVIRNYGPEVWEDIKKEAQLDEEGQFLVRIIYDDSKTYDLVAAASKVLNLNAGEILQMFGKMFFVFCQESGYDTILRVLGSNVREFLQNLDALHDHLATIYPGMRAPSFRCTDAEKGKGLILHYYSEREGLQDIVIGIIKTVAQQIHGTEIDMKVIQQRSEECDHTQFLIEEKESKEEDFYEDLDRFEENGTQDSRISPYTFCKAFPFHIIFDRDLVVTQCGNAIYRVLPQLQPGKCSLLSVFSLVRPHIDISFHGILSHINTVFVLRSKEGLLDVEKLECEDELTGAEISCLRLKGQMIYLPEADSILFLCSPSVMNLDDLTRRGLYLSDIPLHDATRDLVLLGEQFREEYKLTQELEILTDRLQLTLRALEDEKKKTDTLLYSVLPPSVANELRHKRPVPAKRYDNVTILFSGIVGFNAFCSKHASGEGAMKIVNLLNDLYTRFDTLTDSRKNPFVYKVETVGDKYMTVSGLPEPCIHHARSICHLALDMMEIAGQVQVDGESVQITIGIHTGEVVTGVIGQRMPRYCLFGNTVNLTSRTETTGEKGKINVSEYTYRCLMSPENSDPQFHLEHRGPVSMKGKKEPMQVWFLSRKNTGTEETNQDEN
T1 sequence (P19686 1-690): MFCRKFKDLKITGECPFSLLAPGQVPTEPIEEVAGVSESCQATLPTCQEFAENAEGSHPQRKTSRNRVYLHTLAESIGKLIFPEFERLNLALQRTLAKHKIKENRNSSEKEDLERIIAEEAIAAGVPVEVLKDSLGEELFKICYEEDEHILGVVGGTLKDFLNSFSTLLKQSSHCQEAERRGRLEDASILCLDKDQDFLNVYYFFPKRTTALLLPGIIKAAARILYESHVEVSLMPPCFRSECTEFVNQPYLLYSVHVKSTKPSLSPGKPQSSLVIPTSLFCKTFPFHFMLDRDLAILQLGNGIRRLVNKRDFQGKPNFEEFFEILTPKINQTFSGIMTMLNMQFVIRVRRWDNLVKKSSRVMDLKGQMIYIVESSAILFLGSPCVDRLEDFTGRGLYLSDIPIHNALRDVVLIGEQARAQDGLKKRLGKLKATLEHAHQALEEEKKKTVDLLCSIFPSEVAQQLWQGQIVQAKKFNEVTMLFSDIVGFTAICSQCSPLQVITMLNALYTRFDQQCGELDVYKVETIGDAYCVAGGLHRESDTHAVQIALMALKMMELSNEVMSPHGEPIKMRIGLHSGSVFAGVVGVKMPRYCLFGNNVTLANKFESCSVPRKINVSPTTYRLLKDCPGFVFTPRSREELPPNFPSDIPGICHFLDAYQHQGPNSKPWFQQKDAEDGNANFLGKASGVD
Method in brief: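 Rat recombinant guanylate cyclase reporter cell line measures cellular activity. Value reported as MEC (minimal effective concentration), sometimes averaged over individual determinations.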

MEC [µM]	Structure (SMILES)
0.30	Cc1cc(OCc2c(F)cccc2F)c2nc(C)c(C(=O)NCCC(C)(C)N)n2c1 [Example 114, N-(3-amino-3-methylbutyl)-8-[(2,6-difluorobenzyl)oxy]-2,6-dimethylimidazo[1,2-a]-pyridine-3-carboxamide]
3.00	CCCC(C)(N)CNC(=O)c1cnc2c(OCc3c(F)cccc3F)cccn12 (stereo not drawn) [Example 354, ent-N-(2-amino-2-methylpentyl)-8-[(2,6-difluorobenzyl)oxy]imidazo[1,2-a]pyridine-3-carboxamide]
1.00	Cc1cc(OCc2c(F)cccc2F)c2nc(C)c(C(=O)NC(CN)c3cccc(OCCO)c3)n2c1 (racemic) [Example 393, rac-N-{2-amino-1-[3-(2-hydroxyethoxy)phenyl]ethyl}-8-[(2,6-difluorobenzyl)oxy]-2,6-dimethylimidazo[1,2-a]pyridine-3-carboxamide]
0.03	CCCC(C)(N)CNC(=O)c1c(C)nc2c(OCc3c(F)ccc(F)c3F)cc(C)cn12 (racemic) [Example 293, rac-N-(2-amino-2-methylpentyl)-2,6-dimethyl-8-[(2,3,6-trifluorobenzyl)oxy]imidazo[1,2-a]pyridine-3-carboxamide]
1.00	Cc1nc2c(OCc3c(F)cccc3F)cccn2c1C(=O)NC1CCCN(C)C1 (racemic) [Example 84, rac-8-[(2,6-difluorobenzyl)oxy]-2-methyl-N-(1-methylpiperidin-3-yl)imidazo[1,2-a]-pyridine-3-carboxamide]
0.30	Cc1nc2c(OCc3c(F)cccc3F)cc(Cl)cn2c1C(=O)NCC(N)CC(F)(F)F (racemic) [Example 147, rac-N-(2-amino-4,4,4-trifluorobutyl)-6-chloro-8-[(2,6-difluorobenzyl)oxy]-2-methylimidazo[1,2-a]pyridine-3-carboxamide]
0.30	Cc1nc2c(OCc3c(F)cccc3F)cc(Cl)cn2c1C(=O)NC(C)CN (stereo not drawn) [Example 22, ent-N-(1-aminopropan-2-yl)-6-chloro-8-[(2,6-difluorobenzyl)oxy]-2-methylimidazo[1,2-a]-pyridine-3-carboxamide]
1.00	Cc1cc(OCc2c(F)cccc2F)c2nc(C)c(C(=O)NCC3(N)COC3)n2c1 [Example 216, N-[(3-Aminooxetan-3-yl)methyl]-8-[(2,6-difluorobenzyl)oxy]-2,6-dimethylimidazo[1,2-a]pyridine-3-carboxamide]
1.00	Cc1nc2c(OCc3c(F)cccc3F)cc(Cl)cn2c1C(=O)NCCCN [Example 37, N-(3-aminopropyl)-6-chloro-8-[(2,6-difluoro-benzyl)oxy]-2-methylimidazo[1,2-a]pyridine-3-carboxamide]
1.00	COCC(CN)NC(=O)c1c(C)nc2c(OCc3c(F)cccc3F)cccn12 (single isomer, unassigned) [Example 122, ent-N-(1-Amino-3-methoxypropan-2-yl)-8-[(2,6-difluorobenzyl)oxy]-2-methylimidazo[1,2-a]-pyridine-3-carboxamide Ditrifluoroacetate]
0.10	Cc1nc2c(OCc3c(F)cccc3F)cc(Cl)cn2c1C(=O)NCC1(N)CC1 [Example 39, N-[(1-aminocyclopropyl)methyl]-6-chloro-8-[(2,6-difluorobenzyl)oxy]-2-methylimidazo[1,2-a]pyridine-3-carboxamide]
0.30	Cc1nc2c(OCc3c(F)cccc3F)cc(Cl)cn2c1C(=O)NCC(N)C(C)C (single isomer, unassigned) [Example 211, ent-N-(2-Amino-3-methylbutyl)-6-chloro-8-[(2,6-difluorobenzyl)oxy]-2-methylimidazo[1,2-a]-pyridine-3-carboxamide]
1.00	Cc1cc(OCc2c(F)cccc2F)c2nc(C)c(C(=O)NC34CC5CC(CC(N)(C5)C3)C4)n2c1 [Example 365, N-(3-aminoadamantan-1-yl)-8-[(2,6-difluorobenzyl)oxy]-2,6-dimethylimidazo[1,2-a]pyridine-3-carboxamide Formate]
1.00	COCC(C)(N)CNC(=O)c1c(C)nc2c(OCc3c(F)cccc3F)cc(Cl)cn12 (single isomer, unassigned) [Example 196, ent-N-(2-Amino-3-methoxy-2-methylpropyl)-6-chloro-8-[(2,6-difluorobenzyl)oxy]-2-methylimidazo[1,2-a]pyridine-3-carboxamide]
3.00	COCC(N)CNC(=O)c1c(C)nc2c(OCc3c(F)cccc3F)cccn12 (single isomer, unassigned) [Example 247, ent-N-(2-Amino-3-methoxypropyl)-8-[(2,6-difluorobenzyl)oxy]-2-methylimidazo[1,2-a]pyridine-3-carboxamide]
1.00	Cc1nc2c(OCc3c(F)cccc3F)cccn2c1C(=O)NCC(C)N1CCOCC1 (single isomer, unassigned; ent-8) [Example 180, ent-8-[(2,6-Difluorobenzyl)oxy]-2-methyl-N-[2-(morpholin-4-yl)propyl]imidazo[1,2-a]pyridine-3-carboxamide]
0.30	CCCC[C@H](CN1CCN(C)CC1)NC(=O)c1c(C)nc2c(OCc3c(F)cccc3F)cccn12 [Example 67, ent-8-[(2,6-difluorobenzyl)oxy]-2-methyl-N-[(2R)-1-(4-methylpiperazin-1-yl)hexan-2-yl]imidazo[1,2-a]pyridine-3-carboxamide]
1.00	COCCNCCNC(=O)c1c(C)nc2c(OCc3c(F)cccc3F)cc(Cl)cn12 [Example 153, 6-chloro-8-[(2,6-difluorobenzyl)oxy]-N-{2-[(2-methoxyethyl)amino]ethyl}-2-methylimidazo[1,2-a]pyridine-3-carboxamide]
1.00	Cc1nc2c(OCc3c(F)cccc3F)cccn2c1C(=O)NC12CNCCC1C2 (single isomer, unassigned) [Example 184, ent-N-(3-Azabicyclo[4.1.0]hept-1-yl)-8-[(2,6-difluorobenzyl)oxy]-2-methylimidazo[1,2-a]pyridine-3-carboxamide]
0.30	Cc1nc2c(OCc3c(F)cccc3F)cccn2c1C(=O)NCCN1CCC(F)(F)C1 [Example 143, 8-[(2,6-difluorobenzyl)oxy]-N-[2-(3,3-difluoropyrrolidin-l-yl)ethyl]-2-methylimidazo[1,2-a]pyridine-3-carboxamide]
0.3	CCC(C)(N)CNC(=O)c1c(C)nc2c(OCc3c(F)cccc3F)cc(C(F)F)cn12 (single isomer, unassigned; enantiomer a) [Example 288, ent-N-(2-amino-2-methylbutyl)-8-[(2,6-difluorobenzyl)oxy]-6-(difluoromethyl)-2-methylimidazo[1,2-a]pyridine-3-carboxamide (Enantiomer A)]
0.10	Cc1cc(OCc2c(F)cccc2F)c2nc(C)c(C(=O)NCC(C)(N)CCOCc3ccccc3)n2c1 (racemic) [Example 262, rac-N-[2-Amino-4-(benzyloxy)-2-methylbutyl]-8-[(2,6-difluorobenzyl)oxy]-2,6-dimethylimidazo-[1,2-a]pyridine-3-carboxamide]
0.30	COCC(N)CNC(=O)c1c(C)nc2c(OCc3c(F)cccc3F)cc(C)cn12 (single isomer, unassigned) [Example 242, ent-N-(2-Amino-3-methoxypropyl)-8-[(2,6-difluorobenzyl)oxy]-2,6-dimethylimidazo[1,2-a]-pyridine-3-carboxamide]
0.10	CC=CCC(N)CNC(=O)c1c(C)nc2c(OCc3c(F)cccc3F)cc(C)cn12 (racemic) [Example 406, rac-N-[(4E/Z)-2-aminohex-4-en-1-yl]-8-[(2,6-difluorobenzyl)oxy]-2,6-dimethylimidazo[1,2-a]pyridine-3-carboxamide]
0.30	Cc1cc(OCc2c(F)cccc2F)c2nc(C)c(C(=O)NC3C(N)C3(C)C)n2c1 (racemic) [Example 341, rac-N-(3-amino-2,2-dimethylcyclopropyl)-8-[(2,6-difluorobenzyl)oxy]-2,6-dimethylimidazo[1,2-a]pyridine-3-carboxamide (Racemate)]
